From patent US6806230B1, “Pyrimidine derivatives and herbicides containing them” (Kumiai Chemical Industry Co., Ltd., priority 1999, dated 2004)

Tested on: barnyard grass (Eo)
Assay: Test Example 1: herbicidal effects by flooded paddy field treatment
Assay type: in vivo
Parameters: herbicidal effects, Eo (barnyard grass):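 0-5 growth inhibition grade; 5 = over 90%; 4 = 70-90%; 3 = 50-70%; 2 = 30-50%; 1 = 10-30%; 0 = under 10%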
Details: dose 100 g active ingredient per 10 ares, examined on the 21st day after treatment, standards of Table 44
How it was run: (§1)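 Flooded paddy pre-emergence test: sowing into puddled soil under 3 cm water, then dropwise water-surface treatment the following day with diluted wettable powder at 100 g active ingredient per 10 ares. Greenhouse cultivation followed, and weeds were rated against a standard scale at 21 days.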

SMILES	herbicidal effects, Eo (barnyard grass)
Cc1ccc(CC(=O)N(C)C(c2cncnc2C(F)(F)F)C(C)C)s1 (racemic) [2-50]	5
COc1ncncc1C(C(C)C)N(C)C(=O)Cc1ccccc1 (racemic) [1-401]	5
CC(=O)c1ncncc1C(C(C)C)N(C)C(=O)Cc1ccc(F)cc1 (racemic) [1-527]	5
CC(C)C(c1cncnc1C(F)(F)F)N(CC#N)C(=O)Cc1ccc(F)cc1 (racemic) [1-579]	5
CC(C)CC(c1cncnc1C(F)(F)F)N(C)C(=O)Cc1cccc(F)c1 (racemic) [1-334]	5
CC(C)C(c1cncnc1C(F)(F)F)N(C)C(=O)N(C)c1ccc(C#N)cc1 (racemic) [1-459]	5
CN(C(=O)Cc1ccc(F)cc1)C(c1ccsc1)c1cncnc1C(F)(F)F (racemic) [1-441]	5
CCC(C)C(c1cncnc1C(F)(F)F)N(C)C(=O)Cc1ccc(Cl)cc1F (mixture of isomers) [Compound 1-251]	5
CCC(c1cncnc1C(C)(C)C)N(C)C(=O)Cc1ccc(Cl)cc1 (racemic) [1-572]	5
C#CCN(C(=O)Cc1ccc(F)cc1)C(CCC)c1cncnc1C(C)C (racemic) [1-611]	5
CN(C(=O)Cc1ccc(F)cc1)C(c1ccccc1F)c1cncnc1C(F)(F)F (racemic) [1-547]	5
CCC(c1cncnc1C(C)C)N(C)C(=O)Cc1ccccc1 (racemic) [1-436]	5
CC(C)C(c1cncnc1C(F)(F)F)N(C)C(=O)Cc1ccc(Cl)s1 (racemic) [2-25]	5

Tested on: monochoria (Mo)
Assay: as above
Assay type: in vivo
Parameters: herbicidal effects, Mo (monochoria):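 0-5 growth inhibition grade; 5 = over 90%; 4 = 70-90%; 3 = 50-70%; 2 = 30-50%; 1 = 10-30%; 0 = under 10%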
Details: dose 100 g active ingredient per 10 ares, examined on the 21st day after treatment, standards of Table 44
How it was run: as §1

SMILES	herbicidal effects, Mo (monochoria)
Cc1ccc(CC(=O)N(C)C(c2cncnc2C(F)(F)F)C(C)C)s1 (racemic) [2-50]	5
COc1ncncc1C(C(C)C)N(C)C(=O)Cc1ccccc1 (racemic) [1-401]	5
CC(=O)c1ncncc1C(C(C)C)N(C)C(=O)Cc1ccc(F)cc1 (racemic) [1-527]	5
CC(C)C(c1cncnc1C(F)(F)F)N(CC#N)C(=O)Cc1ccc(F)cc1 (racemic) [1-579]	5
CC(C)CC(c1cncnc1C(F)(F)F)N(C)C(=O)Cc1cccc(F)c1 (racemic) [1-334]	5
CC(C)C(c1cncnc1C(F)(F)F)N(C)C(=O)N(C)c1ccc(C#N)cc1 (racemic) [1-459]	5
CN(C(=O)Cc1ccc(F)cc1)C(c1ccsc1)c1cncnc1C(F)(F)F (racemic) [1-441]	5
CCC(C)C(c1cncnc1C(F)(F)F)N(C)C(=O)Cc1ccc(Cl)cc1F (mixture of isomers) [Compound 1-251]	5
CCC(c1cncnc1C(C)(C)C)N(C)C(=O)Cc1ccc(Cl)cc1 (racemic) [1-572]	5
C#CCN(C(=O)Cc1ccc(F)cc1)C(CCC)c1cncnc1C(C)C (racemic) [1-611]	5
CN(C(=O)Cc1ccc(F)cc1)C(c1ccccc1F)c1cncnc1C(F)(F)F (racemic) [1-547]	5
CCC(c1cncnc1C(C)C)N(C)C(=O)Cc1ccccc1 (racemic) [1-436]	5
CC(C)C(c1cncnc1C(F)(F)F)N(C)C(=O)Cc1ccc(Cl)s1 (racemic) [2-25]	5

Tested on: barnyard grass (Ec)
Assay: Test Example 2: herbicidal effects by upland soil treatment
Assay type: in vivo
Parameters: scale not given here
Details: dose 100 g active ingredient per 10 ares, examined on the 21st day after treatment
How it was run: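 Pre-emergence test: barnyard grass and green foxtail sown in upland soil, then soil surface sprayed with wettable-powder formulation at 100 g active ingredient per 10 ares (100 l per 10 ares). Grown in greenhouse; herbicidal effect scored on a rating scale 21 days after treatment.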

SMILES	Ec (herbicidal effects, index)
Cc1ccc(CC(=O)N(C)C(c2cncnc2C(F)(F)F)C(C)C)s1 (racemic) [2-50]	5
COc1ncncc1C(C(C)C)N(C)C(=O)Cc1ccccc1 (racemic) [1-401]	5
CC(=O)c1ncncc1C(C(C)C)N(C)C(=O)Cc1ccc(F)cc1 (racemic) [1-527]	5
CC(C)C(c1cncnc1C(F)(F)F)N(CC#N)C(=O)Cc1ccc(F)cc1 (racemic) [1-579]	5
CC(C)CC(c1cncnc1C(F)(F)F)N(C)C(=O)Cc1cccc(F)c1 (racemic) [1-334]	5
CC(C)C(c1cncnc1C(F)(F)F)N(C)C(=O)N(C)c1ccc(C#N)cc1 (racemic) [1-459]	5
CN(C(=O)Cc1ccc(F)cc1)C(c1ccsc1)c1cncnc1C(F)(F)F (racemic) [1-441]	5
CCC(C)C(c1cncnc1C(F)(F)F)N(C)C(=O)Cc1ccc(Cl)cc1F (mixture of isomers) [Compound 1-251]	5
CCC(c1cncnc1C(C)(C)C)N(C)C(=O)Cc1ccc(Cl)cc1 (racemic) [1-572]	5
C#CCN(C(=O)Cc1ccc(F)cc1)C(CCC)c1cncnc1C(C)C (racemic) [1-611]	5
CN(C(=O)Cc1ccc(F)cc1)C(c1ccccc1F)c1cncnc1C(F)(F)F (racemic) [1-547]	5
CCC(c1cncnc1C(C)C)N(C)C(=O)Cc1ccccc1 (racemic) [1-436]	5
CC(C)C(c1cncnc1C(F)(F)F)N(C)C(=O)Cc1ccc(Cl)s1 (racemic) [2-25]	5

Tested on: barnyard grass (Ec)
Assay: Test Example 3: herbicidal effects by foliage treatment in upland field
Assay type: in vivo
Parameters: scale not given here
Details: dose 100 g active ingredient per 10 ares, examined on the 14th day after treatment
Description: In a 80 cm^2 plastic pot, upland soil was filled, and seeds of barnyard grass (Ec) and green foxtail (Se) were sown and cultured in a green house for 2 weeks. Then, a wettable powder prepared in accordance with Formulation Example 1 was diluted with water and applied to the entire foliage from above the plants by means of a small size spray at a rate of 100 l per 10 ares so that the dose of the active ingredient would be 100 g per 10 ares. Thereafter, cultivation was carried out in a green house, and on the 14th day after the treatment, the herbicidal effects were examined in accordance with the standards of Table 44.

SMILES	Ec (herbicidal effects, index)
Cc1ccc(CC(=O)N(C)C(c2cncnc2C(F)(F)F)C(C)C)s1 (racemic) [2-50]	4
COc1ncncc1C(C(C)C)N(C)C(=O)Cc1ccccc1 (racemic) [1-401]	5
CC(=O)c1ncncc1C(C(C)C)N(C)C(=O)Cc1ccc(F)cc1 (racemic) [1-527]	4
CC(C)C(c1cncnc1C(F)(F)F)N(CC#N)C(=O)Cc1ccc(F)cc1 (racemic) [1-579]	4
CC(C)CC(c1cncnc1C(F)(F)F)N(C)C(=O)Cc1cccc(F)c1 (racemic) [1-334]	4
CC(C)C(c1cncnc1C(F)(F)F)N(C)C(=O)N(C)c1ccc(C#N)cc1 (racemic) [1-459]	4
CN(C(=O)Cc1ccc(F)cc1)C(c1ccsc1)c1cncnc1C(F)(F)F (racemic) [1-441]	4
CCC(C)C(c1cncnc1C(F)(F)F)N(C)C(=O)Cc1ccc(Cl)cc1F (mixture of isomers) [Compound 1-251]	4
CCC(c1cncnc1C(C)(C)C)N(C)C(=O)Cc1ccc(Cl)cc1 (racemic) [1-572]	4
C#CCN(C(=O)Cc1ccc(F)cc1)C(CCC)c1cncnc1C(C)C (racemic) [1-611]	4
CN(C(=O)Cc1ccc(F)cc1)C(c1ccccc1F)c1cncnc1C(F)(F)F (racemic) [1-547]	4
CCC(c1cncnc1C(C)C)N(C)C(=O)Cc1ccccc1 (racemic) [1-436]	4
CC(C)C(c1cncnc1C(F)(F)F)N(C)C(=O)Cc1ccc(Cl)s1 (racemic) [2-25]	5

Tested on: barnyard grass (Eo)
Assay: Test Example 4: selectivity for a crop plant by flooded paddy field treatment
Assay type: in vivo
Parameters: scale not given here
Details: barnyard grass, dose 25 gai/10a, 21st day after treatment, index per Table 44
How it was run: (§2)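 Steps: fill pot with paddy soil and puddle; sow weed seeds; transplant rice at second-leaf stage; flood to 3 cm. Next day, drip the water-diluted wettable powder onto the water (25 g a.i./10 ares). Grow in greenhouse and rate herbicidal effect on day 21.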

SMILES	Eo (herbicidal effect index)
Cc1ccc(CC(=O)N(C)C(c2cncnc2C(F)(F)F)C(C)C)s1 (racemic) [2-50]	5
COc1ncncc1C(C(C)C)N(C)C(=O)Cc1ccccc1 (racemic) [1-401]	5
CC(=O)c1ncncc1C(C(C)C)N(C)C(=O)Cc1ccc(F)cc1 (racemic) [1-527]	5
CC(C)C(c1cncnc1C(F)(F)F)N(CC#N)C(=O)Cc1ccc(F)cc1 (racemic) [1-579]	5
CC(C)CC(c1cncnc1C(F)(F)F)N(C)C(=O)Cc1cccc(F)c1 (racemic) [1-334]	5
CC(C)C(c1cncnc1C(F)(F)F)N(C)C(=O)N(C)c1ccc(C#N)cc1 (racemic) [1-459]	5
CN(C(=O)Cc1ccc(F)cc1)C(c1ccsc1)c1cncnc1C(F)(F)F (racemic) [1-441]	5
CCC(C)C(c1cncnc1C(F)(F)F)N(C)C(=O)Cc1ccc(Cl)cc1F (mixture of isomers) [Compound 1-251]	5
CCC(c1cncnc1C(C)(C)C)N(C)C(=O)Cc1ccc(Cl)cc1 (racemic) [1-572]	5
C#CCN(C(=O)Cc1ccc(F)cc1)C(CCC)c1cncnc1C(C)C (racemic) [1-611]	5
CN(C(=O)Cc1ccc(F)cc1)C(c1ccccc1F)c1cncnc1C(F)(F)F (racemic) [1-547]	5
CCC(c1cncnc1C(C)C)N(C)C(=O)Cc1ccccc1 (racemic) [1-436]	5
CC(C)C(c1cncnc1C(F)(F)F)N(C)C(=O)Cc1ccc(Cl)s1 (racemic) [2-25]	5

Tested on: monochoria (Mo)
Assay: as above
Assay type: in vivo
Parameters: scale not given here
Details: monochoria, dose 25 gai/10a, 21st day after treatment, index per Table 44
How it was run: as §2

SMILES	Mo (herbicidal effect index)
Cc1ccc(CC(=O)N(C)C(c2cncnc2C(F)(F)F)C(C)C)s1 (racemic) [2-50]	5
COc1ncncc1C(C(C)C)N(C)C(=O)Cc1ccccc1 (racemic) [1-401]	5
CC(=O)c1ncncc1C(C(C)C)N(C)C(=O)Cc1ccc(F)cc1 (racemic) [1-527]	5
CC(C)C(c1cncnc1C(F)(F)F)N(CC#N)C(=O)Cc1ccc(F)cc1 (racemic) [1-579]	5
CC(C)CC(c1cncnc1C(F)(F)F)N(C)C(=O)Cc1cccc(F)c1 (racemic) [1-334]	5
CC(C)C(c1cncnc1C(F)(F)F)N(C)C(=O)N(C)c1ccc(C#N)cc1 (racemic) [1-459]	5
CN(C(=O)Cc1ccc(F)cc1)C(c1ccsc1)c1cncnc1C(F)(F)F (racemic) [1-441]	5
CCC(C)C(c1cncnc1C(F)(F)F)N(C)C(=O)Cc1ccc(Cl)cc1F (mixture of isomers) [Compound 1-251]	5
CCC(c1cncnc1C(C)(C)C)N(C)C(=O)Cc1ccc(Cl)cc1 (racemic) [1-572]	5
C#CCN(C(=O)Cc1ccc(F)cc1)C(CCC)c1cncnc1C(C)C (racemic) [1-611]	5
CN(C(=O)Cc1ccc(F)cc1)C(c1ccccc1F)c1cncnc1C(F)(F)F (racemic) [1-547]	5
CCC(c1cncnc1C(C)C)N(C)C(=O)Cc1ccccc1 (racemic) [1-436]	5
CC(C)C(c1cncnc1C(F)(F)F)N(C)C(=O)Cc1ccc(Cl)s1 (racemic) [2-25]	5

Tested on: rice (Or)
Assay: as above
Assay type: in vivo
Parameters: scale not given here
Details: rice transplanted at second leaf stage, dose 25 gai/10a, 21st day after treatment, index per Table 44
How it was run: as §2

SMILES	Or (herbicidal effect index on crop)
Cc1ccc(CC(=O)N(C)C(c2cncnc2C(F)(F)F)C(C)C)s1 (racemic) [2-50]	1
COc1ncncc1C(C(C)C)N(C)C(=O)Cc1ccccc1 (racemic) [1-401]	1
CC(=O)c1ncncc1C(C(C)C)N(C)C(=O)Cc1ccc(F)cc1 (racemic) [1-527]	1
CC(C)C(c1cncnc1C(F)(F)F)N(CC#N)C(=O)Cc1ccc(F)cc1 (racemic) [1-579]	1
CC(C)CC(c1cncnc1C(F)(F)F)N(C)C(=O)Cc1cccc(F)c1 (racemic) [1-334]	0
CC(C)C(c1cncnc1C(F)(F)F)N(C)C(=O)N(C)c1ccc(C#N)cc1 (racemic) [1-459]	1
CN(C(=O)Cc1ccc(F)cc1)C(c1ccsc1)c1cncnc1C(F)(F)F (racemic) [1-441]	1
CCC(C)C(c1cncnc1C(F)(F)F)N(C)C(=O)Cc1ccc(Cl)cc1F (mixture of isomers) [Compound 1-251]	1
CCC(c1cncnc1C(C)(C)C)N(C)C(=O)Cc1ccc(Cl)cc1 (racemic) [1-572]	1
C#CCN(C(=O)Cc1ccc(F)cc1)C(CCC)c1cncnc1C(C)C (racemic) [1-611]	1
CN(C(=O)Cc1ccc(F)cc1)C(c1ccccc1F)c1cncnc1C(F)(F)F (racemic) [1-547]	1
CCC(c1cncnc1C(C)C)N(C)C(=O)Cc1ccccc1 (racemic) [1-436]	1
CC(C)C(c1cncnc1C(F)(F)F)N(C)C(=O)Cc1ccc(Cl)s1 (racemic) [2-25]	1
